{"source": "patent US12600724B2", "about": "“Indole alkaloid and preparation method and use thereof” (NANJING UNIVERSITY OF CHINESE MEDICINE, priority 2022, dated 2026)", "key": {"[1]": {"tested_on": "bleomycin-induced pulmonary fibrosis mouse", "test": "Bleomycin-induced pulmonary fibrosis mouse, Micro-CT volume of normal lung tissue", "type": "in vivo, C57BL/6J mice", "conditions": "for Volume of normal lung tissue: bleomycin 5 mg/kg model, S26 46.8 mg/kg intragastric, Mean ± SD, n = 4", "text": "In this experiment, the pulmonary fibrosis model was established by oral tracheal instilling of a bleomycin solution into the mouse, and then the compound S26 was administrated for treatment. A volume of a normal lung tissue of the mouse was quantified by carrying out CT photographing and three-dimensional reconstruction on a lung of the mouse to evaluate the influence of the vinpocetine derivative S26 on the degree of the bleomycin-induced pulmonary fibrosis of the mouse. Male 8-week-old C57BL/6J mice were purchased from Beijing Weitong Lihua Experimental Animal Technology Co., Ltd. One week after adaptive feeding, a lung development condition of the mouse was examined by micro-CT. The mice were divided into a blank control group (normal mice), a model group and a S26 administration group (46.8 mg/kg) according to a volume of a normal lung tissue. Subsequently, an inhalation anesthesia machine was used to carry out isoflurane inhalation to induce anesthesia. The mice in the model group and the administration group were given 5 mg/kg bleomycin solution through oral tracheal instilling to establish the pulmonary fibrosis model, while the mice in the control group were given the same volume of bleomycin solvent. The mice were administrated on day 8 after the establishment of the model, and were intragastrically administrated for 20 days continuously. Micro-CT imaging was carried out before the establishment of the model and on day 8, day 18 and day 28 after the establishment of the model to observe pulmonary fibrosis of the mice."}, "[2]": {"tested_on": "DRG neurons of type-1 diabetes peripheral neuropathy model mice", "test": "Axon growth of DRG neuron cells taken after administration, type-1 mice", "type": "in vivo, C57BL/6J mice", "experimental": "(§1) Type-1 diabetes mice: male 8-week-old C57BL/6J mice were purchased from Beijing Vital River Laboratory Animal Technology Co., Ltd. One week after adaptive feeding, STZ (150 mg/kg) was injected intraperitoneally, and one week later, tail vein blood collection was carried out for blood sugar detection, and the mice with random blood sugar greater than 16 mmol/L were selected. Six weeks after STZ injection, the mice were divided into a control group (non-diabetic mice), a model group (DPN mice) and a S26 administration group (46.8 mg/kg/day) respectively according to body weight and blood sugar, and administrated intragastrically for four weeks continuously. After administration, a fresh DRG neuron of a mouse was extracted to digest into a single-cell suspension and then inoculated into a culture plate for adherent culture overnight. A β-tubulin III (Sigma) protein of the DRG neuron cells was labeled by an immunofluorescence staining method. The protein was imaged by a fluorescence microscope (Leica), and a total axon length of a single DRG neuron cell was tracked by a Neuro J plug-in in Image J software."}, "[3]": {"tested_on": "STZ-induced type-1 diabetes model mice", "test": "Motor nerve conduction velocity, type-1 diabetic peripheral neuropathy mice", "type": "in vivo, C57BL/6J mice", "conditions": "for Motor nerve conduction velocity: type-1 mice, S26 46.8 mg/kg/day intragastric, Mean ± SD, n = 3", "experimental": "Type-1 diabetes mice: male 8-week-old C57BL/6J mice were purchased from Beijing Vital River Laboratory Animal Technology Co., Ltd. One week after adaptive feeding, STZ (150 mg/kg) was injected intraperitoneally, and one week later, tail vein blood collection was carried out for blood sugar detection, and the mice with random blood sugar greater than 16 mmol/L were selected. Six weeks after STZ injection, the mice were divided into a control group (non-diabetic mice), a model group (DPN mice) and a S26 administration group (46.8 mg/kg/day) respectively according to body weight and blood sugar, and administrated intragastrically for four weeks continuously. Before administration, 2 weeks and 4 weeks after administration, motor nerve conduction velocities (MNCV) of left and right sides of each group of mice were detected, and a mean value of the velocities of two sides was taken as a nerve conduction velocity of each mouse. Specific experimental method: (1) electrode placement: a stimulating electrode was placed on a nerve trunk, a recording electrode was placed on a muscle belly, and a reference electrode was placed on a muscle tendon; and a ground electrode was placed between the stimulating electrode and the recording electrode. (2) Calculation of motor nerve conduction velocity: distal and proximal ends of the nerve trunk were stimulated in a super-strong manner, a compound muscle action potential could be recorded twice on a muscle innervated by the nerve, different latent periods of the compound muscle action potentials were measured, and a distance between the distal and proximal ends was divided by a difference between the two latent periods, so as to obtain the nerve conduction velocity. Computational formula: nerve conduction velocity (m/s)=distance between two ends (cm)×10/difference between two latent periods (ms)."}, "[4]": {"tested_on": "DRG neurons of type-2 diabetes peripheral neuropathy model mice", "test": "Axon growth of DRG neuron cells taken after administration, type-2 mice", "type": "in vivo, BKS db/db mice", "experimental": "as §1, with “Type-2” for “Type-1”, “18-week-old BKS db/db” for “8-week-old C57BL/6J”, “Jiangsu Gempharmatech Biotechnology” for “Beijing Vital River Laboratory Animal Technology”, “feeding,” for “feeding, STZ (150 mg/kg) was injected intraperitoneally, and one week later, tail vein blood collection was carried out for blood sugar detection, and the mice with random blood sugar greater than 16 mmol/L were selected. Six weeks after STZ injection,”, “(db/m” for “(non-diabetic”, “(db/db” for “(DPN”"}}, "data": [{"smiles": "CC[C@@]12C=C(C(=O)NCC(=O)OCCOCCOCCOCCO)n3c4c(c5ccccc53)CCN(CCC1)[C@H]42", "note": "[Compound S26]", "values": [{"measurement": "Volume of normal lung tissue", "setting": "[1]; day 0 of administration (day 8 after model)", "result": "328.98 ± 34.15^ mm^3"}, {"measurement": "Volume of normal lung tissue", "setting": "[1]; day 10 of administration (day 18 after model)", "result": "486.71 ± 48.61^# mm^3"}, {"measurement": "Volume of normal lung tissue", "setting": "[1]; day 20 of administration (day 28 after model)", "result": "536.70 ± 58.44^## mm^3"}, {"measurement": "Volume of the normal lung tissue (in words, FIG. 3)", "setting": "[1]; pulmonary fibrosis model mouse", "result": "obviously increase"}, {"measurement": "Total axon length", "setting": "[2]; Type-1 mice, DRG neurons extracted after four weeks of S26 46.8 mg/kg/day intragastric, Mean (SD in the cell below), n = 6", "result": 6374.12, "unit": "pixel"}, {"measurement": "Axon growth conditions of DRG neurons (in words, FIG. 1)", "setting": "[2]; type-1 diabetes peripheral neuropathy model mice", "result": "obviously improve"}, {"measurement": "Motor nerve conduction velocity and anesthesia symptom (in words)", "setting": "[3]; type-1 diabetes peripheral neuropathy mouse, Tables 2 to 4", "result": "obviously improve"}, {"measurement": "Motor nerve conduction velocity", "setting": "[3]; week 0 of administration", "result": "20.37 ± 3.21^ m/s"}, {"measurement": "Motor nerve conduction velocity", "setting": "[3]; week 2 of administration", "result": "27.48 ± 2.97", "unit": "m/s"}, {"measurement": "Motor nerve conduction velocity", "setting": "[3]; week 4 of administration", "result": "31.11 ± 3.85", "unit": "m/s"}, {"measurement": "Total axon length", "setting": "[4]; Type-2 db/db mice, DRG neurons extracted after four weeks of S26 46.8 mg/kg/day intragastric, Mean (SD in the cell below), n = 6", "result": 6070.18, "unit": "pixel"}, {"measurement": "Axon growth conditions of DRG neurons (in words, FIG. 1)", "setting": "[4]; type-2 diabetes peripheral neuropathy model mice", "result": "obviously improve"}]}]}
